PMC6125551 (Antimicrobial Agents and Chemotherapy, 2018)
Like-named read-outs stand apart in the source and are kept apart here.

What was measured:
[1] = Plasma pharmacokinetics, single dose as 30-min i.v. infusion, study 1 part I, healthy men; settings: for half-life / AUC(0-inf) / concentration at 30 min / clearance / Vd: male, human, plasma; for AUC(0-inf): AUC0–∞; for concentration at 30 min: CEOI; for clearance: CL; for Vd: Vz;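 for all read-outs here: plasma analyte levels quantified by HILIC with tandem mass spectrometry, parameters derived noncompartmentally in WinNonlin, AUC by linear-up log-down trapezoidal rule, clearance taken as dose over AUC0–∞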
Method: (§1) Study 1 (protocol 001) was a phase 1, randomized, double-blind, placebo-controlled, rising single- and multiple-dose study conducted at a single center that investigated relebactam in healthy adult men. The study was conducted in four parts, and all doses were administered intravenously (i.v.) in a total volume of 100 ml over 30 min.
(§2) In each panel, in all periods (except period 4), subjects were randomized to receive a placebo (n = 2) or relebactam (n = 6).
(§3) The plasma was mixed with a stabilizer containing morpholineethanesulfonic acid buffer and ethylene glycol before storage at −70°C. […] The assay utilized hydrophilic interaction chromatography (HILIC) and tandem mass spectrometry. Stable isotope-labeled internal standards were used for all three analytes.
(§4) Pharmacokinetic parameters were determined from plasma and urine concentration-time data by a noncompartmental approach using Phoenix WinNonlin, version 6.3 (Certara LP, Princeton, NJ, USA). The CEOI (concentration at end of infusion) and Tmax (time to maximum concentration) were generated from each analyte's plasma concentration-time data. All AUC values were calculated using the linear trapezoidal method for ascending concentrations and the log trapezoidal method for descending concentrations (calculation method options in WinNonlin). AUC0–∞ was calculated as the sum of AUC0–last and Cest, last/λz, where AUC0–last is the AUC from time 0 to the time of the last quantifiable concentration, Cest, last is the predicted concentration at the time of the last quantifiable concentration, and λz is the apparent terminal rate constant. […] At least three consecutive data points (excluding Cmax) in terminal phase were used for λz calculations. Clearance (CL) was calculated as dose/AUC0–∞.

[2] = clinical; settings: male, human, 500 mg
Method: as §1, §2, §3, §4

[3] = clinical; settings: male, human, in vivo
Method: as §2, §3
(§5) The amount of unchanged drug excreted in urine during a collection interval (Ae) was calculated by a cumulative sum of urine (concentration of unchanged drug × volume) per collection interval. The fraction of the dose excreted in urine (fe) was calculated as Ae/dose.

[4] = clinical; settings: male, human, in vivo; remark: listed apart in the source
Method: (§6) Each panel was dosed sequentially, allowing for assessment of safety and tolerability before dose escalation.
as §3, §4

[5] = clinical; settings: female, human, plasma, intravenous
Method: (§7) Study 2 (protocol 002) was a phase 1, randomized, double-blind, placebo-controlled study with three panels of healthy participants that included elderly men (panel L [n = 8]), elderly women (panel M [n = 8]), and adult women (panel N [n = 8]).
as §3, §4

[6] = Urine pharmacokinetics, single dose, study 2; settings: both, human, CLR, range
Method: as §7, §3, §5

[7] = Safety and tolerability, single dose, study 1 part I; format: in vivo, human
Source text: The safety analysis comprised the all-subjects-as-treated (ASaT) population, which included those participants who received ≥1 dose of investigational drug.

[8] = Plasma pharmacokinetics, single dose, study 2 (elderly men, elderly women, adult women)
Method: as §7, §3, §4

[9] = clinical; settings: male, human, in vivo, unbound CLR
Method: as §6, §3, §5

[10] = assumed for the calculation, no reference given; cited from earlier work
[11] = male, human, in vivo
Method: as §6, §3, §5

[12] = male, human, in vivo, 250 mg
Method: as §2, §3, §5

[13] = for AUC(0-t) / half-life: male, human, in vivo
Method: as §6, §3, §4

[14] = Urine pharmacokinetics, single dose, study 1 part I, healthy men; settings: imipenem-cilastatin 500 mg alone, adult men from study 1
Method: as §2, §3, §5

[15] = urine and plasma, intravenous, adult participants (men and women)
[16] = urine and plasma, intravenous, elderly participants (men and women)
[17] = intravenous, 25 mg, relebactam 25 mg alone, single dose
[18] = intravenous, 50 mg, relebactam 50 mg alone, single dose
[19] = intravenous, 250 mg, relebactam 250 mg alone, single dose
[20] = intravenous, 500 mg, relebactam 500 mg alone, single dose
[21] = intravenous, 1000 mg, relebactam 1,000 mg alone, single dose
[22] = intravenous, 1150 mg, relebactam 1,150 mg alone, single dose
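Throughout, for CEOI: plasma levels quantified by HILIC with tandem mass spectrometry and isotope-labeled internal standards, parameters derived noncompartmentally in WinNonlin, clearance equal to dose divided by AUC0-∞.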

C[C@@H](O)[C@H]1C(=O)N2C(C(=O)O)=C(SCCN=CN)C[C@H]12 [Imipenem]
half-life ([1]; intravenous, t1/2, observed, compared with relebactam): 1.1 h | AUC(0-inf) ([2]; plasma, intravenous): 140 ± 16.7 µM·h | clearance ([2]; plasma, intravenous): 201 ± 21.4 mL/min | concentration at 30 min ([2]; plasma, intravenous): 102 ± 17 µM | half-life ([2]; plasma, intravenous): 1.13 ± 0.075 h | CL renal ([3]; 500 mg): 106 ± 20.3 mL/min | CL renal ([3]; 500 mg, CLR, mean (95% CI)): 108 mL/min | AUC(0-t) [4]: 138 ± 15.3 µM·h | clearance [4]: 178 ± 16.1 mL/min | AUC(0-inf) [5]: 132 ± 18.9 µM·h | CL renal [6, 15]: 98.6 to 108 mL/min | CL renal [6, 16]: 67.6 to 80.9 mL/min

O=C(NC1CCNCC1)[C@@H]1CC[C@@H]2CN1C(=O)N2OS(=O)(=O)O [Relebactam]
AUC(0-inf) [1, 17]: 7.97 ± 1.67 µM·h | concentration at 30 min [1, 17]: 4.42 ± 1.18 µM | clearance [1, 17]: 155 ± 30.6 mL/min | Vd [1, 17]: 18.3 ± 2.99 L | half-life ([1]; intravenous, 25 mg, t1/2, relebactam 25 mg alone, single dose): 1.39 ± 0.246 h | AUC(0-inf) [1, 18]: 15.6 ± 2.73 µM·h | concentration at 30 min [1, 18]: 9.04 ± 1.88 µM | clearance [1, 18]: 157 ± 23.8 mL/min | Vd [1, 18]: 20.5 ± 3.88 L | concentration at 30 min [1, 19]: 45.4 ± 7.27 µM | clearance [1, 19]: 148 ± 16.4 mL/min | Vd [1, 19]: 20.8 ± 2.77 L | half-life ([1]; intravenous, 250 mg, t1/2, relebactam 250 mg alone, single dose): 1.63 ± 0.129 h | AUC(0-inf) [1, 20]: 180 ± 25.7 µM·h | concentration at 30 min [1, 20]: 101 ± 17.6 µM | clearance [1, 20]: 135 ± 19.9 mL/min | Vd [1, 20]: 19.1 ± 2.64 L | half-life ([1]; intravenous, 500 mg, t1/2, relebactam 500 mg alone, single dose): 1.64 ± 0.141 h | AUC(0-inf) [1, 21]: 373 ± 51.9 µM·h | concentration at 30 min [1, 21]: 209 ± 28.6 µM | clearance [1, 21]: 130 ± 18.3 mL/min | Vd [1, 21]: 20.6 ± 3.46 L | half-life ([1]; intravenous, 1000 mg, t1/2, relebactam 1,000 mg alone, single dose): 1.84 ± 0.281 h | AUC(0-inf) [1, 22]: 396 ± 55.3 µM·h | concentration at 30 min [1, 22]: 208 ± 18.3 µM | clearance [1, 22]: 141 ± 18.8 mL/min | Vd [1, 22]: 21.6 ± 2.69 L | half-life ([1]; intravenous, 1150 mg, t1/2, relebactam 1,150 mg alone, single dose): 1.78 ± 0.225 h | half-life ([1]; intravenous, harmonic mean terminal half-life (t1/2), range, single dose, 25- to 1,150-mg dose range, healthy men): 1.35 to 1.8 h | half-life ([1]; iv, terminal half-life (t1/2), range, single- or multiple-dose i.v. administration over 30 min, independent of dose): 1.35 to 1.85 h | AUC0–∞ ([1]; relebactam 250 mg alone, single dose): 81.8 ± 9.07 µM·h | tolerability ([7]; alone or in combination with imipenem-cilastatin, across the dose ranges studied): well tolerated | participants reporting ≥1 drug-related AEs ([7]; single-dose cohort, part I, n = 16, with or without imipenem-cilastatin): 50% | CL renal ([3]; 25 mg, CLR): 177 ± 29.4 mL/min | CL renal ([3]; 50 mg, CLR): 166 ± 21.8 mL/min | CL renal ([3]; 125 mg, CLR): 159 ± 19.6 mL/min | CL renal ([3]; 125 mg, CLR, mean (95% CI)): 158 mL/min | CL renal ([3]; 250 mg, CLR): 153 ± 16.5 mL/min | CL renal ([3]; 500 mg, CLR): 129 ± 20.7 mL/min | CL renal ([3]; 1000 mg, CLR): 127 ± 20.2 mL/min | CL renal ([3]; 1150 mg, CLR): 137 ± 20.6 mL/min | increase in AUC0–∞ ([8]; adult women vs adult men (historic data from study 1)): 22% | increase in mean plasma exposure ([8]; elderly men vs adult men): 41% | increase in mean plasma exposure ([8]; elderly women vs adult women): 45% | increase in AUC0–∞ ([8]; elderly women vs elderly men): 25% | half-life ([4]; geometric mean terminal t1/2, range): 1.42 to 1.85 h | CL renal at 7 days [9]: 173 mL/min | free fraction [10]: 78% | net active secretion, share of total clearance [11]: approximately 30% | CL renal [6, 15]: 106 to 158 mL/min | CL renal [6, 16]: 69.6 to 89.2 mL/min | CLR [12]: 144 ± 11.0 mL/min

CC1(C)C[C@@H]1C(=O)N/C(=C\CCCCSC[C@H](N)C(=O)O)C(=O)O [Cilastatin]
AUC(0-inf) ([2]; in vivo): 114 ± 13.5 µM·h | Vd ([2]; in vivo): 16.5 ± 2.11 L | concentration at 30 min ([2]; in vivo): 101 ± 16.6 µM | half-life ([2]; in vivo): 0.92 ± 0.051 h | CEOI ([13]; 0 mg relebactam + 500 mg imipenem/cilastatin, panel I, day 1, N 1): 144 µM | CEOI ([13]; 0 mg relebactam + 500 mg imipenem/cilastatin, panel J, day 1): 107 ± 6.53 µM | CEOI ([13]; 0 mg relebactam + 500 mg imipenem/cilastatin, panel K, day 1): 104 ± 10.4 µM | CEOI ([13]; 50 mg relebactam + 500 mg imipenem/cilastatin, panel C, day 1): 106 ± 12.0 µM | CEOI ([13]; 250 mg relebactam + 500 mg imipenem/cilastatin, panel F, day 1): 103 ± 20.0 µM | CEOI ([13]; 500 mg relebactam + 500 mg imipenem/cilastatin, panel H, day 1): 115 ± 21.9 µM | CEOI ([13]; 500 mg relebactam + 500 mg imipenem/cilastatin, panel J, day 1): 98.5 ± 14.6 µM | AUC(0-t) ([13]; AUC0-6, 0 mg relebactam + 500 mg imipenem/cilastatin, panel I, day 1, N 1): 167 µM·h | AUC(0-t) ([13]; AUC0-6, 0 mg relebactam + 500 mg imipenem/cilastatin, panel J, day 1): 110 ± 7.17 µM·h | AUC(0-t) ([13]; AUC0-6, 0 mg relebactam + 500 mg imipenem/cilastatin, panel K, day 1): 126 ± 37.9 µM·h | AUC(0-t) ([13]; AUC0-6, 50 mg relebactam + 500 mg imipenem/cilastatin, panel C, day 1): 127 ± 24.8 µM·h | AUC(0-t) ([13]; AUC0-6, 250 mg relebactam + 500 mg imipenem/cilastatin, panel F, day 1): 110 ± 14.2 µM·h | AUC(0-t) ([13]; AUC0-6, 500 mg relebactam + 500 mg imipenem/cilastatin, panel H, day 1): 136 ± 22.5 µM·h | AUC(0-t) ([13]; AUC0-6, 500 mg relebactam + 500 mg imipenem/cilastatin, panel J, day 1): 106 ± 17.2 µM·h | half-life ([13]; Terminal t1/2, 0 mg relebactam + 500 mg imipenem/cilastatin, panel I, day 1, N 1): 0.962 h | half-life ([13]; Terminal t1/2, 0 mg relebactam + 500 mg imipenem/cilastatin, panel J, day 1): 0.862 ± 0.088 h | half-life ([13]; Terminal t1/2, 0 mg relebactam + 500 mg imipenem/cilastatin, panel K, day 1): 0.908 ± 0.182 h | half-life ([13]; Terminal t1/2, 50 mg relebactam + 500 mg imipenem/cilastatin, panel C, day 1): 1.01 ± 0.142 h | half-life ([13]; Terminal t1/2, 250 mg relebactam + 500 mg imipenem/cilastatin, panel F, day 1): 0.998 ± 0.087 h | half-life ([13]; Terminal t1/2, 500 mg relebactam + 500 mg imipenem/cilastatin, panel H, day 1): 1.01 ± 0.146 h | half-life ([13]; Terminal t1/2, 500 mg relebactam + 500 mg imipenem/cilastatin, panel J, day 1): 0.874 ± 0.117 h | CL renal ([6]; in vivo, adult participants (men and women)): 157 to 168 mL/min | CL renal ([6]; in vivo, elderly participants (men and women)): 112 to 126 mL/min | fe, least squares mean (95% CI) [14]: 88.5 (82.1, 94.9) % | CL renal ([14]; male, human, in vivo, 500 mg, CLR, mean (95% CI)): 168 mL/min
